Assay results: patent publication US7361679B2, “2-phenyl-3-heteroarylpropionic acid derivative or salt thereof and medicine containing the same” (Kaken Pharmaceutical Co., Ltd., priority 2001, dated 2008)

What was measured:
LPAM-1/VCAM-1 = molecular target: T1, LPAM-1/VCAM-1 (Homo sapiens, UniProt P13612+P26010); assay: LPAM-1/VCAM-1 adhesion inhibition test; format: cell-based
T1 sequence (P13612 34-1032): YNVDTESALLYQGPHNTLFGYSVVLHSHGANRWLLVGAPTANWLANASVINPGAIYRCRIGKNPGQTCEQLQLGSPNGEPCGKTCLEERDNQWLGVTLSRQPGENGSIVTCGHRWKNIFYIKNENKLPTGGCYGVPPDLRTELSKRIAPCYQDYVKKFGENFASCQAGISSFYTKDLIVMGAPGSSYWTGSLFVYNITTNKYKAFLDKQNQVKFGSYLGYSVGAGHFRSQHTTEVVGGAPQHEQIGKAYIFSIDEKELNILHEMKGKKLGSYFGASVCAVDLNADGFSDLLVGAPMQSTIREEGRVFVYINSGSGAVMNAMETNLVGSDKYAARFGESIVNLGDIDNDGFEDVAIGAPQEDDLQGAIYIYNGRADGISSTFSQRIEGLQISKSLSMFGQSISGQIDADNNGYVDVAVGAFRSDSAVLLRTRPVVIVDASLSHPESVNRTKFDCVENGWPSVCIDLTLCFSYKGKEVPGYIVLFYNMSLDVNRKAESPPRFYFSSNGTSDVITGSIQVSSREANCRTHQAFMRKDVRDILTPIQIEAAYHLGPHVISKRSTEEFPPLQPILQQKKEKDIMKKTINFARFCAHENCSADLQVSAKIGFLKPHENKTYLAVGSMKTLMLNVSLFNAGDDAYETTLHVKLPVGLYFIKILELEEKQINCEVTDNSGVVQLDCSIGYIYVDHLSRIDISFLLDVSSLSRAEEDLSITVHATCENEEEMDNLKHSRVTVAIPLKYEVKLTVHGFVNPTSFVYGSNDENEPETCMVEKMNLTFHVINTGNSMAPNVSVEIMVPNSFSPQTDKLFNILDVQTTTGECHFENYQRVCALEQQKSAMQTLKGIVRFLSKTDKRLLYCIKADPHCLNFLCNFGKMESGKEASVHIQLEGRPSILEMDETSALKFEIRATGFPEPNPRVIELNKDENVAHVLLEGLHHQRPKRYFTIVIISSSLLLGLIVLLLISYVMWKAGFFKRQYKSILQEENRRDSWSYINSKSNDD
T1 sequence (P26010 20-798): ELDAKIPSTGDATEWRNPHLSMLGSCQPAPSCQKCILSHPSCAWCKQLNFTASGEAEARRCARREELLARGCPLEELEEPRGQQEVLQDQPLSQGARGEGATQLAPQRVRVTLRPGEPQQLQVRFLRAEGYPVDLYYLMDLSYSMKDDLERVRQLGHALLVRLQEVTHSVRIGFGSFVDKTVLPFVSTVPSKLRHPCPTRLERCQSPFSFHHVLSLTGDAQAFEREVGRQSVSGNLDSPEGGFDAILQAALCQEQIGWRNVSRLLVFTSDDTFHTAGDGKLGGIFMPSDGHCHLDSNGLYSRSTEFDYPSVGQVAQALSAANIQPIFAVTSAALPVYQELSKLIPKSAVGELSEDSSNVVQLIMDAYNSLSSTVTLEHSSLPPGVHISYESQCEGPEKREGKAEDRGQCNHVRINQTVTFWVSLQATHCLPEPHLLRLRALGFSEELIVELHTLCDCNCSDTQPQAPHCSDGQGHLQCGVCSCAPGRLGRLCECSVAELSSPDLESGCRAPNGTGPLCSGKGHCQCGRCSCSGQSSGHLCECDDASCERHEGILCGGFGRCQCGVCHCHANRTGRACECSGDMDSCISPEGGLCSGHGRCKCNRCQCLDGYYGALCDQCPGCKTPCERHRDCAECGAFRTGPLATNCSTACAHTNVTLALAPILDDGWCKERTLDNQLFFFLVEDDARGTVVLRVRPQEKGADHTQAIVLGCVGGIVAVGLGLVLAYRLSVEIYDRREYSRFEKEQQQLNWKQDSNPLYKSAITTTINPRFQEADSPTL

VLA-4/VCAM-1 = molecular target: T2, VLA-4/VCAM-1 (Homo sapiens, UniProt P05556+P13612); assay: VLA-4/VCAM-1 adhesion inhibition test (BCECF-labelled HL-60 cells adhering to VCAM-1 expressing CHO cells); format: cell-based; conditions: adhesion of VLA-4 expressing HL-60 cells to CHO cells transfected with human VCAM-1 gene; read-out: 50% inhibition concentration
T2 construct: endogenous in cells; host or cells: HL-60 cells (VLA-4, endogenous); CHO cells transfected with a human VCAM-1 gene (the ligand VCAM-1)
Procedure: Test Example 1 VLA-4/VCAM-1 Adhesion Inhibition Test
The above VCAM-1 expressing CHO cells were placed in a 96-well culture plate in amount of 7×10^3 cells per well and cultured in Ham's F-12 medium containing 10 wt % fetal calf serum (FCS) for 3 days until a confluent state was satisfied. The HL-60 cells were re-floated in Hanks' solution containing 0.4 wt % bovine serum albumin (BSA), and 5 μM of 2′,7′-bis(carboxyethyl)-5(6)-carboxyfluorescein penta acetoxy methyl ester (BCECF-AM) was added to label the cells. Solutions having various concentrations of each test substance and having an amount of 20 μl each were added to 180 μl each of suspensions of BCECF-labeled HL-60 cells re-floated at a rate of 4×10^6 cells/ml in the FCS-non-containing RPMI 1640 culture medium, and pre-treated at 37° C. for 15 minutes.
Then, the pre-treated HL-60 cells were stratified in the 96-well plate culturing the VCAM-1 expressing CHO cells at a rate of 2×10^5 cells per well, and allowed to adhere thereto at 37° C. for 5 minutes. Then, the plate was filled with 0.4 wt % BSA Hanks, covered with a plate sealer and turned upside down. Further, the cells were cultured for 45 minutes. After washing, 1 wt % NP-40-containing PBS was added to destroy the cells, and the thus-obtained supernatants were measured for fluorescence intensity with a cyto Fluor 2300 fluorescence measurement system (supplied by Millipore).
Further, as a blank, 1 wt % NP-40-containing PBS was measured for fluorescence intensity. Further, as standards, a fluorescence-labeled HL-60 floating liquid was added to 1 wt % NP-40-containing PBS at a rate of 2×10^5, 10^5, 2×10^4 and 10^4 cells/ml, the cells were destroyed, and the thus-obtained supernatants were measured for fluorescence intensity.
Each test substance was measured as described above, and on the basis of the calibration curve prepared from the measurements of the standard, cells in a control and cells adhering to the VCAM-1 expressive CHO cells due to the addition of the test substances were measured for numbers, and cell adhesion inhibition ratios (%) were calculated on the basis of the following equation.
Cell adhesion inhibition ratio (%)=100×[1−(number of adhered cells of groups to which the test substance was added/number of adhered cells of control groups)

T2 sequence (P05556 21-798, one chain of several): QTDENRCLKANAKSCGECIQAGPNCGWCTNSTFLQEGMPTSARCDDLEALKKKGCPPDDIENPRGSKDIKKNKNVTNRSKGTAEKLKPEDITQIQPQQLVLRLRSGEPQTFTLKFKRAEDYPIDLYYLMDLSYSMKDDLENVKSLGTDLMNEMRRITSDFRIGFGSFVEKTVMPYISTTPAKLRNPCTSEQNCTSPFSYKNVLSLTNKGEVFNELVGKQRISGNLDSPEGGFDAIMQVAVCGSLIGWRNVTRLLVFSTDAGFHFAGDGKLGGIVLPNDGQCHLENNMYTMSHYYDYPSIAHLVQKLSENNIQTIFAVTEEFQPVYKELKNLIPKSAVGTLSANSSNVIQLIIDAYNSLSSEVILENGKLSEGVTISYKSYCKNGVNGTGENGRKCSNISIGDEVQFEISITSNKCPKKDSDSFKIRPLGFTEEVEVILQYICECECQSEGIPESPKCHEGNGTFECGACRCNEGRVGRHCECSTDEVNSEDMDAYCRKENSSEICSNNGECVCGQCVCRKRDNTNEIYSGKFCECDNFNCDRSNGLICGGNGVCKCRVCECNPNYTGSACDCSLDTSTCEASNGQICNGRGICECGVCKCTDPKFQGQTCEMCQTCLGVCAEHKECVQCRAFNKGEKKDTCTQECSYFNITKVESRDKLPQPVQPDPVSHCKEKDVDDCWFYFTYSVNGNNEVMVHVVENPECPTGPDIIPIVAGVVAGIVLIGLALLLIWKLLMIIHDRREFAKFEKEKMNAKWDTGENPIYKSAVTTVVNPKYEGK

| adhesion inhibition activity (LPAM-1/VCAM-1) | IC50 (VLA-4/VCAM-1) [nM] | SMILES |
| --- | --- | --- |
| adhesion inhibition activity was found | 3 | COc1ccc(C(Cc2ccc(NC(=O)c3c(Cl)cccc3Cl)nc2)C(=O)O)cc1N(CC(C)C)C(=O)C(C)(C)C (centres unmarked) [Example 1, 3-[2-(2,6-dichlorobenzoylamino)pyrid-5-yl]-2-{3-[(2,2-dimethylpropionyl)isobutylamino]-4-methoxyphenyl}propionic acid] |
|  | 12 | COc1ccc(C(Cc2ccc(NC(=O)c3c(Cl)cccc3Cl)nc2)C(=O)O)cc1N(CC(C)C)C(=O)C(C)C (centres unmarked) [Example 2] |
|  | 33 | CCC(CC)C(=O)N(CC(C)C)c1cc(C(Cc2ccc(NC(=O)c3c(Cl)cccc3Cl)nc2)C(=O)O)ccc1OC (centres unmarked) [Example 3] |
|  | 48 | CCOc1ccc(C(Cc2ccc(NC(=O)c3c(Cl)cccc3Cl)nc2)C(=O)O)cc1N(CC(C)C)C(=O)C(C)C (centres unmarked) [Example 5] |
|  | 13 | CCOc1ccc(C(Cc2ccc(NC(=O)c3c(Cl)cccc3Cl)nc2)C(=O)O)cc1N(CC(C)C)C(=O)C(C)(C)C (centres unmarked) [Example 6] |
|  | 7.3 | CCOc1ccc(C(Cc2ccc(NC(=O)c3c(Cl)cccc3Cl)nc2)C(=O)O)cc1N(CC(C)C)C(=O)C(CC)CC (centres unmarked) [Example 7] |
| adhesion inhibition activity was found | 2.8 | COc1ccc(C(Cc2ccc(NC(=O)c3c(Cl)cncc3Cl)nc2)C(=O)O)cc1N(CC(C)C)C(=O)C(C)(C)C (centres unmarked) [Example 9] |
| adhesion inhibition activity was found | 1.2 | CCOc1ccc(C(Cc2ccc(NC(=O)c3c(Cl)cncc3Cl)nc2)C(=O)O)cc1N(CC(C)C)C(=O)C(C)(C)C (centres unmarked) [Example 10] |
